Experiment: Thermal stability on storage in sealed dry containers, residual Cefditoren pivoxyl by liquid chromatography
Format: physicochemical
Conditions: sealed dry container; for Residual quantity (%) of Cefditoren pivoxyl upon storage at 60° C., Initial content (at 0 day): initial content assumed to be 100%
Description: In order to test the thermal stability on storage of the new crystalline substance of Cefditoren pivoxyl according to this invention, in comparison with the known, amorphous form of Cefditoren pivoxyl, there were employed a sample of the crystalline Cefditoren pivoxyl which was produced in Example 1 given hereinafter, as well as a sample of the amorphous Cefditoren pivoxyl which was produced by admixing a solution of amorphous Cefditoren pivoxyl in methanol with an aqueous iso-propanol to precipitate an amorphous powder of this compound and separating and drying this powder under a reduced pressure. These samples were separately placed in sealed dry containers and were stored for 1 month, for 2 months and for 4 months at 60° C. and at 40° C., respectively. After these storages, the samples were analysed by a liquid chromatographic method and percentages of the residual quantity of Cefditoren pivoxyl remaining in the stored samples were evaluated from the area under the absorption peak which was shown in the chromatogramms obtained. It is assumed that the initial content of Cefditoren pivoxyl in the test samples was 100% at the starting of the storages.

| Residual quantity (%) of Cefditoren pivoxyl upon storage at 60° C., After 1 month [%] | Residual quantity (%) of Cefditoren pivoxyl upon storage at 60° C., After 2 months [%] | Residual quantity (%) of Cefditoren pivoxyl upon storage at 60° C., Initial content (at 0 day) [%] | Residual quantity of Cefditoren pivoxyl after the 4-month storage at 40° C. (40° C., 4 months) [%] | Residual quantity (%) of Cefditoren pivoxyl upon storage at 60° C., After 2 months (listed as crystalline substance of Cefditoren pivoxyl) [%] | SMILES |
| --- | --- | --- | --- | --- | --- |
| 93 | 88 | 100 |  |  | CO/N=C(\C(=O)NC1C(=O)N2C(C(=O)OCOC(=O)C(C)(C)C)=C(/C=C\c3scnc3C)CS[C@H]12)c1csc(N)n1 (some centres unmarked) [Amorphous substance, 7-[(Z)-2-(2-aminothiazol-4-yl)-2-methoxyiminoacetamido]-3-[(Z)-2-(4-methylthiazol-5-yl)ethenyl]-3-cephem-4-carboxylic acid pivaloyloxymethyl ester, reference compound] |
| 99 | 99 | 100 | 99 | 99 | CO/N=C(\C(=O)NC1C(=O)N2C(C(=O)OCOC(=O)C(C)(C)C)=C(/C=C\c3scnc3C)CS[C@H]12)c1csc(N)n1 (some centres unmarked) [Crystalline substance, 7-[(Z)-2-(2-aminothiazol-4-yl)-2-methoxyiminoacetamido]-3-[(Z)-2-(4-methylthiazol-5-yl)ethenyl]-3-cephem-4-carboxylic acid pivaloyloxymethyl ester] |
